Laboratory results from patent US20220282217A1, “COMPOSITIONS AND METHODS FOR PREPARING T CELL COMPOSITIONS AND USES THEREOF” (priority 2019, published 2022).
Where a SMILES comes first, the peptide text is derived from it.

How the values were obtained:
HLA-A02.01 [1] = target: T1, HLA-A02.01 (Homo sapiens, UniProt P04439, D140Y/D185E/D98H/E176V/E277Q/G131W/G231S/I119V/I121R/I166T/I218V/N151K/N90K/P208A/P217A/Q86G/Q94H/R138H/R169H); assay: Class I MHC peptide binding stability (pMHC-I dissociation, 125I-labeled light chain); settings: allele A02.01
T1 construct: made in house; host or cells: E. coli

HLA-A02.01 [2] = target: HLA-A02.01 (Homo sapiens, UniProt P04439, D140Y/D185E/D98H/E176V/E277Q/G131W/G231S/I119V/I121R/I166T/I218V/L300P/L318F/N151K/N90K/P208A/P217A/Q86G/Q94H/R138H/R169H/T345S); assay: Class I MHC peptide binding affinity (displacement of radiolabeled reference peptide); settings: allele A02.01; read-out: Observed Affinity (IC50; (nM))
Summary of the method: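 Read-out: radioactivity of reference peptide retained on MHCI, separated from free label by gel-filtration size exclusion. Competing peptides are titrated against the preformed complexes and incubated two days beforehand.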

HLA-A03.01 = HLA-A03.01 (Homo sapiens, UniProt P04439); assay: as above; settings: allele A03.01; read-out: Observed Affinity (IC50; (nM))
HLA-A24.02 = assay: as above; set-up: species or system human; settings: allele A24.02; read-out: Observed Affinity (IC50; (nM))

Row | Compound | IC50 (HLA-A03.01) [nM] | other results
1 | CC[C@H](C)[C@H](NC(=O)[C@H](Cc1ccc(O)cc1)NC(=O)[C@H](CC(C)C)NC(=O)[C@H](CO)NC(=O)[C@H](CC(N)=O)NC(=O)[C@H](CS)NC(=O)[C@H](CCC(=O)O)NC(=O)[C@H](Cc1c[nH]cn1)NC(=O)[C@H](CC(C)C)NC(=O)[C@@H](N)C(C)C)C(=O)O (H-VLHECNSLYI-OH; N-terminus and C-terminus assumed) | 10500 | Stability (T1/2 (h)) (HLA-A02.01 [1]): 5.1 h; IC50 (HLA-A02.01 [2]): 10 nM
2 | CC(C)C[C@H](NC(=O)[C@@H](NC(=O)[C@H](CO)NC(=O)[C@H](CO)NC(=O)[C@H](CC(C)C)NC(=O)[C@@H](N)CCCNC(=N)N)C(C)C)C(=O)N[C@@H](CCC(N)=O)C(=O)N[C@@H](CCCNC(=N)N)C(=O)N[C@@H](Cc1ccccc1)C(=O)O (H-RLSSVLQRF-OH; N-terminus and C-terminus assumed) |  | IC50 (HLA-A24.02): 28.2 nM
3 | CC(C)C[C@H](NC(=O)[C@@H](N)CCCNC(=N)N)C(=O)N[C@@H](CO)C(=O)N[C@@H](CO)C(=O)N[C@@H](CS)C(=O)N[C@H](C(=O)N1CCC[C@H]1C(=O)N[C@H](C(=O)N[C@@H](C)C(=O)O)C(C)C)C(C)C | 439 | Stability (T1/2 (h)) (HLA-A02.01 [1]): 18.7 h
4 | CC[C@H](C)[C@H](NC(=O)[C@H](CCCCN)NC(=O)[C@H](CO)NC(=O)[C@H](CCC(=O)O)NC(=O)[C@H](C)NC(=O)[C@H](CCCCN)NC(=O)[C@H](CC(C)C)NC(=O)[C@H](Cc1ccccc1)NC(=O)[C@@H](N)CCSC)C(=O)O (H-MFLKAESKI-OH; N-terminus and C-terminus assumed) |  | IC50 (HLA-A24.02): 332 nM
5 | CC[C@H](C)[C@H](NC(=O)[C@H](Cc1c[nH]c2ccccc12)NC(=O)[C@H](CC(C)C)NC(=O)[C@@H]1CCCN1C(=O)[C@H](CO)NC(=O)[C@H](CCCNC(=N)N)NC(=O)[C@H](CC(C)C)NC(=O)[C@@H](N)CCCCN)C(=O)N[C@@H](Cc1ccccc1)C(=O)O (H-KLRSPLWIF-OH; N-terminus and C-terminus assumed) |  | IC50 (HLA-A24.02): 828 nM
6 | CC[C@H](C)[C@H](NC(=O)[C@H](Cc1ccc(O)cc1)NC(=O)[C@@H](N)CC(C)C)C(=O)N[C@H](C(=O)N[C@@H](C)C(=O)N[C@@H](Cc1ccccc1)C(=O)N[C@@H](Cc1ccccc1)C(=O)N[C@@H](CC(C)C)C(=O)N[C@@H](CC(C)C)C(=O)N[C@@H](CC(=O)O)C(=O)O)[C@@H](C)O (H-LYITAFFLLD-OH; N-terminus and C-terminus assumed) |  | IC50 (HLA-A24.02): 0.4 nM
7 | CSCC[C@H](NC(=O)[C@@H](N)C(C)C)C(=O)N[C@@H](C)C(=O)NCC(=O)N[C@@H](CC(C)C)C(=O)NCC(=O)N[C@@H](CO)C(=O)N1CCC[C@H]1C(=O)N[C@@H](Cc1ccc(O)cc1)C(=O)N[C@H](C(=O)O)C(C)C (H-VMAGLGSPYV-OH; N-terminus and C-terminus assumed) | 11200 | Stability (T1/2 (h)) (HLA-A02.01 [1]): 2.9 h; IC50 (HLA-A02.01 [2]): 102 nM
8 | CC(C)C[C@H](NC(=O)[C@H](Cc1ccccc1)NC(=O)[C@H](CO)NC(=O)[C@H](CC(C)C)NC(=O)[C@H](CS)NC(=O)[C@H](CO)NC(=O)[C@H](Cc1ccccc1)NC(=O)[C@H](CC(C)C)NC(=O)[C@@H](N)CCCCN)C(=O)N[C@@H](CO)C(=O)O (H-KLFSCLSFLS-OH; N-terminus and C-terminus assumed) | 104 | IC50 (HLA-A02.01 [2]): 0.6 nM
9 | CSCC[C@H](NC(=O)[C@@H](N)Cc1ccc(O)cc1)C(=O)N[C@@H](Cc1ccccc1)C(=O)N[C@@H](CC(C)C)C(=O)N[C@@H](CCCCN)C(=O)N[C@@H](C)C(=O)N[C@@H](CCC(=O)O)C(=O)N[C@@H](CO)C(=O)N[C@@H](CCCCN)C(=O)O (H-YMFLKAESK-OH; N-terminus and C-terminus assumed) | 79.8 | 
10 | CSCC[C@H](NC(=O)[C@@H](NC(=O)[C@@H](N)Cc1ccccc1)C(C)C)C(=O)N[C@@H](CO)C(=O)N[C@@H](CC(=O)O)C(=O)N[C@H](C(=O)N[C@H](C(=O)N[C@@H](Cc1ccc(O)cc1)C(=O)N[C@@H](CCCCN)C(=O)O)[C@@H](C)O)[C@@H](C)O (H-FVMSDTTYK-OH; N-terminus and C-terminus assumed) | 66.9 | 
11 | CSCC[C@H](NC(=O)[C@@H](N)CCCCN)C(=O)N[C@@H](CCCNC(=N)N)C(=O)N[C@@H](CCCCN)C(=O)N[C@@H](CCCCN)C(=O)N[C@@H](Cc1ccc(O)cc1)C(=O)N[C@@H](C)C(=O)N[C@@H](CCC(N)=O)C(=O)N[C@@H](CCCCN)C(=O)O (H-KMRKKYAQK-OH; N-terminus and C-terminus assumed) | 5.7 | 
12 | CC[C@H](C)[C@H](NC(=O)[C@@H](N)CCCCN)C(=O)N[C@@H](CO)C(=O)N[C@@H](CC(N)=O)C(=O)N[C@@H](Cc1c[nH]c2ccccc12)C(=O)N[C@@H](CO)C(=O)N[C@@H](CC(C)C)C(=O)N[C@@H](CCCCN)C(=O)N[C@@H](CCCCN)C(=O)N[C@H](C(=O)O)C(C)C (H-KISNWSLKKV-OH; N-terminus and C-terminus assumed) | 115 | 
13 | CC(C)C[C@H](NC(=O)[C@@H](N)CC(C)C)C(=O)N[C@H](C(=O)N[C@@H](CO)C(=O)N[C@@H](CO)C(=O)N[C@@H](CO)C(=O)N[C@@H](CCCNC(=N)N)C(=O)N[C@@H](CCC(=O)O)C(=O)N[C@@H](Cc1c[nH]c2ccccc12)C(=O)N[C@@H](CCCCN)C(=O)O)[C@@H](C)O (H-LLTSSSREWK-OH; N-terminus and C-terminus assumed) | 1770 | 
14 | CC(C)C[C@H](NC(=O)[C@@H](NC(=O)[C@@H](N)[C@@H](C)O)[C@@H](C)O)C(=O)N[C@@H](CC(N)=O)C(=O)N[C@@H](CO)C(=O)N1CCC[C@H]1C(=O)N1CCC[C@H]1C(=O)N[C@@H](CC(C)C)C(=O)N[C@@H](CCCCN)C(=O)O (H-TTLNSPPLK-OH; N-terminus and C-terminus assumed) | 9.8 | 
15 | CSCC[C@H](NC(=O)[C@H](CC(C)C)NC(=O)[C@@H](N)CCCCN)C(=O)N[C@@H](CC(C)C)C(=O)N[C@@H](CC(C)C)C(=O)N[C@@H](CCCNC(=N)N)C(=O)N[C@@H](CC(C)C)C(=O)N[C@@H](CC(N)=O)C(=O)N[C@@H](CC(C)C)C(=O)N[C@@H](CCCNC(=N)N)C(=O)O (H-KLMLLRLNLR-OH; N-terminus and C-terminus assumed) | 48.4 | 
16 | CC(C)C[C@H](NC(=O)[C@@H](NC(=O)[C@@H](NC(=O)[C@@H](N)CS)[C@@H](C)O)[C@@H](C)O)C(=O)N[C@@H](CC(N)=O)C(=O)N[C@@H](CO)C(=O)N1CCC[C@H]1C(=O)N1CCC[C@H]1C(=O)N[C@@H](CC(C)C)C(=O)N[C@@H](CCCCN)C(=O)O (H-CTTLNSPPLK-OH; N-terminus and C-terminus assumed) | 63.6 | 
17 | CC(C)C[C@H](NC(=O)[C@H](C)NC(=O)[C@@H]1CCCN1C(=O)[C@@H](NC(=O)[C@H](CCCCN)NC(=O)[C@H](CCCCN)NC(=O)[C@H](CC(C)C)NC(=O)[C@H](CO)NC(=O)[C@@H](N)Cc1c[nH]c2ccccc12)C(C)C)C(=O)N[C@@H](CCCCN)C(=O)O (H-WSLKKVPALK-OH; N-terminus and C-terminus assumed) | 94.9 | 
18 | C[C@@H](O)[C@H](NC(=O)[C@@H](N)CCCCN)C(=O)N[C@@H](Cc1ccccc1)C(=O)N[C@@H](CCC(=O)O)C(=O)N[C@@H](CCCCN)C(=O)N[C@@H](CCCCN)C(=O)NCC(=O)N[C@@H](CCC(=O)O)C(=O)N[C@@H](CCCCN)C(=O)O (H-KTFEKKGEK-OH; N-terminus and C-terminus assumed) | 32.2 | 
19 | CC[C@H](C)[C@H](NC(=O)[C@H](CCCCN)NC(=O)[C@@H](N)CCCNC(=N)N)C(=O)N[C@@H](CO)C(=O)N[C@@H](CC(N)=O)C(=O)N[C@@H](Cc1c[nH]c2ccccc12)C(=O)N[C@@H](CO)C(=O)N[C@@H](CC(C)C)C(=O)N[C@@H](CCCCN)C(=O)N[C@@H](CCCCN)C(=O)O (H-RKISNWSLKK-OH; N-terminus and C-terminus assumed) | 131 | 
20 | CC(C)[C@H](NC(=O)[C@@H](N)CCCNC(=N)N)C(=O)N[C@@H](CC(N)=O)C(=O)N[C@H](C(=O)N[C@@H](C)C(=O)N[C@@H](Cc1c[nH]c2ccccc12)C(=O)N[C@@H](CCCCN)C(=O)N[C@H](C(=O)N[C@@H](CCCCN)C(=O)N[C@@H](CCCCN)C(=O)O)[C@@H](C)O)[C@@H](C)O (H-RVNTAWKTKK-OH; N-terminus and C-terminus assumed) | 2.3 | 
21 | C[C@@H](O)[C@H](NC(=O)[C@H](CCC(=O)O)NC(=O)[C@H](CCCCN)NC(=O)[C@H](CCCCN)NC(=O)[C@H](CCCCN)NC(=O)[C@H](CO)NC(=O)[C@@H](N)CCCCN)C(=O)N[C@@H](Cc1ccccc1)C(=O)N[C@@H](CCCCN)C(=O)O (H-KSKKKETFK-OH; N-terminus and C-terminus assumed) | 74.3 | 
22 | CC[C@H](C)[C@H](NC(=O)[C@H](C)NC(=O)[C@H](CS)NC(=O)[C@@H](NC(=O)[C@@H](N)Cc1ccc(O)cc1)[C@@H](C)O)C(=O)N[C@H](C(=O)N[C@H](C(=O)N[C@H](C(=O)N[C@@H](CCCCN)C(=O)O)C(C)C)[C@@H](C)O)[C@@H](C)O | 122 | 
23 | CC[C@H](C)[C@H](N)C(=O)N[C@H](C(=O)N[C@H](C(=O)N[C@H](C(=O)N[C@@H](CCCCN)C(=O)N[C@@H](C)C(=O)N[C@H](C(=O)N[C@@H](CCC(=O)O)C(=O)N[C@H](C(=O)N[C@@H](CCCCN)C(=O)O)[C@@H](C)O)[C@@H](C)O)C(C)C)[C@@H](C)O)[C@@H](C)O (H-ITTVKATETK-OH; N-terminus and C-terminus assumed) | 1250 | 
24 | CC(C)C[C@H](NC(=O)[C@H](Cc1ccccc1)NC(=O)[C@H](CO)NC(=O)[C@@H](N)CC(C)C)C(=O)N[C@@H](CO)C(=O)N[C@@H](CO)C(=O)N[C@@H](Cc1c[nH]c2ccccc12)C(=O)N[C@@H](CC(=O)O)C(=O)N[C@@H](Cc1ccc(O)cc1)C(=O)N[C@@H](CCCNC(=N)N)C(=O)O (H-LSFLSSWDYR-OH; N-terminus and C-terminus assumed) | 101 | 
